Source: US20240239788A1, “SMALL MOLECULE INHIBITORS OF KRAS G12D MUTANT” (Merck Sharp & Dohme LLC, priority 2021, published 2024)
Counter-ions that a name gives are not always drawn. Like-named read-outs stand apart in the source and are kept apart here.

Key:
[1] = system: AsPC-1 cells containing homozygous KRAS-G12D activating mutation; assay: Cellular phospho-ERK assay with 10% FBS (Examples 107a-256); type: cell-based
Protocol: 5% CO2 for 2 hours. […] Assay plates were read on a EnVision Multimode Plate Reader (PerkinElmer) and the ratio of p-Erk vs total Erk in each well was used as the final readout.

[2] = molecular target: KRAS protein containing G12D mutation (Homo sapiens (Human), UniProt P01116, G12D); assay: SOS-catalyzed nucleotide exchange assay (GNE), TR-FRET; type: biochemical; conditions: biotinylated KRAS G12D, SOS and GTP, 60-minute incubation
Protocol: Compounds are added to this complex and then after a 60-minute incubation time the mixture is treated with SOS and unlabeled GTP. Small molecule inhibitors stabilize the Bodipy-GDP complex whereas the untreated protein rapidly exchanges Bodipy-GDP for unlabeled GTP resulting in reduced TR-FRET signal.
This solution is referred to as biotinylated KRAS G12D stock solution.

[3] = read-out: IC50 (nM) pERK (cell with FBS 10%), AsPC-1 cells, 10% fetal bovine serum, 2 hours, ratio of p-Erk vs total Erk
[4] = Homo sapiens, ASPC1, 2 h, read-out: IC50 (nM) pERK (cell with FBS 10%), AsPC-1 cells, 10% fetal bovine serum, 2 hours, ratio of p-Erk vs total Erk
[5] = read-out: IC50 (nM) pERK (cell with FBS 10%), AsPC-1 cells, 10% fetal bovine serum, 2 hours, ratio of p-Erk vs total Erk, TFA

Chain of KRAS protein containing G12D mutation (P01116 other isoform, or with tags, fused parts or gaps G12D (already in the parent)): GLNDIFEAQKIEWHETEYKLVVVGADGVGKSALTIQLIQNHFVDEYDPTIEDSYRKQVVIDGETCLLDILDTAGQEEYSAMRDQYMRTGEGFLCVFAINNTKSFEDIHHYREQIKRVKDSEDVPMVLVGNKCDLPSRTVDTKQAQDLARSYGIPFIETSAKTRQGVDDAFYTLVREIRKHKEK

Row | Compound | IC50 [1, 3] [nM] | IC50 [2] [nM] | IC50 [1, 4] [nM] | IC50 [1, 5] [nM]
1 | C[C@]12CCC(CN(c3nc(OCC45CCCN4CC(C(F)F)C5)nc4c(F)c(-c5cc(O)cc6cccc(Cl)c56)c(F)cc34)C1)N2 (single isomer, unassigned) [Ex. 173-2a] | 10200 | 266 |  | 
2 | C[C@]12CCC(CN(c3nc(OC[C@@H]4CC[C@H]5CC(F)(F)CCN45)nc4c(F)c(-c5cc(O)cc6cccc(Cl)c56)c(F)cc34)C1)N2 (single isomer, unassigned) [Ex. 175a] |  | 738 | 6450 | 
3 | C[C@@]12CC[C@H](CN(c3nc(OC[C@@]45CCCN4C[C@H](F)C5)nc4c(F)c(-c5cc(O)cc6ccc(F)c(Cl)c56)c(F)cc34)C1)N2 (single isomer, unassigned) [Ex. 176a] |  | 1.91 | 400 | 
4 | C[C@@]12CC[C@H](CN(c3nc(OC[C@@]45CCCN4C[C@H](F)C5)nc4c(F)c(-c5cc(O)cc6ccc(F)c(Cl)c56)c(F)cc34)C1)N2 (single isomer, unassigned) [Ex. 176b] |  | 110 | 4360 | 
5 | C#Cc1c(F)ccc2cc(O)cc(-c3c(F)cc4c(N5CC6CC[C@@](C)(C5)N6)nc(OC[C@@]56CCCN5C[C@H](F)C6)nc4c3F)c12 (single isomer, unassigned) [Ex. 177a] | 12.7 | 0.8 |  | 
6 | C#Cc1c(F)ccc2cc(O)cc(-c3c(F)cc4c(N5CC6CC[C@@](C)(C5)N6)nc(OC[C@@]56CCCN5C[C@H](F)C6)nc4c3F)c12 (single isomer, unassigned) [Ex. 177b] | 588 | 51.7 |  | 
7 | CCc1cccc2cc(O)cc(-c3c(F)cc4c(N5CC6CC[C@@](C)(C5)N6)nc(OC[C@@]56CCCN5C[C@H](F)C6)nc4c3F)c12 (single isomer, unassigned) [Ex. 178a] | 108 | 1.73 |  | 
8 | CCc1cccc2cc(O)cc(-c3c(F)cc4c(N5CC6CC[C@@](C)(C5)N6)nc(OC[C@@]56CCCN5C[C@H](F)C6)nc4c3F)c12 (single isomer, unassigned) [Ex. 178b] | 4580 | 210 |  | 
9 | C[C@]12CCC(CN(c3nc(OC[C@@]45CCCN4C[C@H](F)C5)nc4c(F)c(-c5cc(O)cc6cc(F)cc(Cl)c56)c(F)cc34)C1)N2 (single isomer, unassigned) [Ex. 180a] | 1040 | 6.48 |  | 
10 | C[C@]12CCC(CN(c3nc(OC[C@@]45CCCN4C[C@H](F)C5)nc4c(F)c(-c5cc(O)cc6cc(F)cc(Cl)c56)c(F)cc34)C1)N2 (single isomer, unassigned) [Ex. 180b] | 14200 | 744 |  | 
11 | C[C@]12CCC(CN(c3nc(OC[C@@]45CCCN4C[C@H](F)C5)nc4c(F)c(-c5cc(O)cc(Cl)c5C(F)(F)F)c(F)cc34)C1)N2 (single isomer, unassigned) [Ex. 183a] | 6070 | 347 |  | 
12 | C[C@]12CCC(CN(c3nc(OC[C@@]45CCCN4C[C@H](F)C5)nc4c(F)c(-c5cc(O)cc(Cl)c5C(F)(F)F)c(F)cc34)C1)N2 (single isomer, unassigned) [Ex. 183b] | 190 | 3.95 |  | 
13 | C[C@@]12CC[C@H](CN(c3nc(OC[C@@]45CCCN4C[C@H](F)C5)nc4c(F)c(-c5cc(O)cc6cccc(F)c56)c(F)cc34)C1)N2 (single isomer, unassigned) [Ex. 186a] | 180 | 1.49 |  | 
14 | C[C@@]12CC[C@H](CN(c3nc(OC[C@@]45CCCN4C[C@H](F)C5)nc4c(F)c(-c5cc(O)cc6cccc(F)c56)c(F)cc34)C1)N2 (single isomer, unassigned) [Ex. 186b] | 3780 | 185 |  | 
15 | Nc1cc2cccc(Cl)c2c(-c2c(F)cc3c(N4CC5CCC(C4)N5)nc(OC[C@@]45CCCN4C[C@H](F)C5)nc3c2F)n1 (single isomer, unassigned) [Ex. 189a] |  | 12.8 | 672 | 
16 | C#Cc1cccc2cccc(-c3c(F)cc4c(N5CC6(C)CCC(C)(C5)N6)nc(OC[C@@]56CCCN5C[C@H](F)C6)nc4c3F)c12 (single isomer, unassigned) [Ex. 190a, TFA] |  | 2510 |  | 30000
17 | C#Cc1cccc2cccc(-c3c(F)cc4c(N5CC6(C)CCC(C)(C5)N6)nc(OC[C@@]56CCCN5C[C@H](F)C6)nc4c3F)c12 (single isomer, unassigned) [Ex. 190b, TFA] |  | 72 |  | 5830
18 | Cc1nc(N)c(C)c(-c2c(F)cc3c(N4CC5CCC(C4)N5)nc(OC[C@@]45CCCN4C[C@H](F)C5)nc3c2F)c1C(F)(F)F (single isomer, unassigned) [Ex. 191a] | 288 | 26.5 |  | 
19 | Cc1nc(N)c(C)c(-c2c(F)cc3c(N4CC5CCC(C4)N5)nc(OC[C@@]45CCCN4C[C@H](F)C5)nc3c2F)c1C(F)(F)F (single isomer, unassigned) [Ex. 191b] | 30000 | 2840 |  | 

Row | Compound | IC50 [1, 3] [nM] | IC50 [2] [nM] | IC50 [1, 4] [nM] | IC50 [1, 5] [nM]
20 | C#Cc1cccc2cc(O)c(F)c(-c3c(F)cc4c(N5CC6CC[C@@](C)(C5)N6)nc(OC[C@@]56CCCN5C[C@H](F)C6)nc4c3F)c12 (single isomer, unassigned) [Ex. 192a] | 114 | 1.17 |  | 
21 | C#Cc1cccc2cc(O)c(F)c(-c3c(F)cc4c(N5CC6CC[C@@](C)(C5)N6)nc(OC[C@@]56CCCN5C[C@H](F)C6)nc4c3F)c12 (single isomer, unassigned) [Ex. 192b] | 1570 | 37 |  | 
22 | Cc1cc(N)nc(-c2c(F)cc3c(N4CC5CC[C@@](C)(C4)N5)nc(OC[C@@]45CCCN4C[C@H](F)C5)nc3c2F)c1C(F)(F)F (single isomer, unassigned) [Ex. 200a] |  | 72.9 | 1220 | 
23 | CN(C)C[C@@]1(COc2nc(N3C[C@H]4CC[C@@H](C3)N4)c3cc(F)c(-c4c(C(F)(F)F)c(Cl)cc5cnn(C)c45)c(F)c3n2)CC1(F)F (single isomer, unassigned) [Ex. 201b] |  | 45.9 | 15600 | 
24 | C#Cc1cccc2nc(N)cc(-c3c(F)cc4c(N5CC6CCC(C5)N6)nc(OC[C@@]56CCCN5C[C@H](F)C6)nc4c3F)c12 (single isomer, unassigned) [Ex. 203a] | 3020 | 380 |  | 
25 | C#Cc1cccc2nc(N)cc(-c3c(F)cc4c(N5CC6CCC(C5)N6)nc(OC[C@@]56CCCN5C[C@H](F)C6)nc4c3F)c12 (single isomer, unassigned) [Ex. 203b] | 120 | 3.32 |  | 
26 | C#Cc1cccc2cc(O)c(C)c(-c3c(F)cc4c(N5CC6CC[C@@](C)(C5)N6)nc(OC[C@@]56CCCN5C[C@H](F)C6)nc4c3F)c12 (single isomer, unassigned) [Ex. 204a] | 64.2 | 1.13 |  | 
27 | C#Cc1cccc2cc(O)c(C)c(-c3c(F)cc4c(N5CC6CC[C@@](C)(C5)N6)nc(OC[C@@]56CCCN5C[C@H](F)C6)nc4c3F)c12 (single isomer, unassigned) [Ex. 204b] | 443 | 23.4 |  | 
28 | C[C@]12CCC(CN(c3nc(OCC4(CN5CC6CCC(C5)O6)CC4)nc4c(F)c(-c5cc(O)cc6cccc(Cl)c56)c(F)cc34)C1)N2 (single isomer, unassigned) [Ex. 208] |  | 210 | 30000 | 
29 | CC(O)(COc1nc(N2CC3CC[C@@](C)(C2)N3)c2cc(F)c(-c3cc(O)cc4cccc(Cl)c34)c(F)c2n1)CN1CC[C@@H](F)C1 (single isomer, unassigned) [Ex. 209] |  | 46.1 | 2910 | 
30 | C#Cc1cccc2cccc(-c3c(F)cc4c(N5CC6CC[C@@](C)(C5)N6)nc(OC[C@@]56CCCN5C[C@H](F)C6)nc4c3F)c12 (single isomer, unassigned) [Ex. 211b] |  | 7.41 | 2010 | 
31 | COCCNC[C@@]1(COc2nc(N3CC4CC[C@@](C)(C3)N4)c3cc(F)c(-c4c(C(F)(F)F)c(C)cc5[nH]ncc45)c(F)c3n2)CC1(F)F (single isomer, unassigned) [Ex. 213] |  | 4460 | 25600 | 
32 | COCC1CCN(C[C@@]2(COc3nc(N4CC5CC[C@@](C)(C4)N5)c4cc(F)c(-c5cc(O)cc6cccc(Cl)c56)c(F)c4n3)CC2(F)F)C1 (single isomer, unassigned) [Ex. 214a] | 3710 | 4.95 |  | 
33 | COCC1CCN(C[C@@]2(COc3nc(N4CC5CC[C@@](C)(C4)N5)c4cc(F)c(-c5cc(O)cc6cccc(Cl)c56)c(F)c4n3)CC2(F)F)C1 (single isomer, unassigned) [Ex. 214b] | 9070 | 180 |  | 
34 | CO[C@@H]1CCN(C[C@@]2(COc3nc(N4CC5CC[C@@](C)(C4)N5)c4cc(F)c(-c5cc(O)cc6cccc(Cl)c56)c(F)c4n3)CC2(F)F)C1 (single isomer, unassigned) [Ex. 215a] | 14000 | 5.06 |  | 
35 | CO[C@@H]1CCN(C[C@@]2(COc3nc(N4CC5CC[C@@](C)(C4)N5)c4cc(F)c(-c5cc(O)cc6cccc(Cl)c56)c(F)c4n3)CC2(F)F)C1 (single isomer, unassigned) [Ex. 215b] | 2370 | 429 |  | 
36 | C[C@]12CCC(CN(c3nc(OC[C@]4(CN[C@H]5C[C@@H](O)C5)CC4(F)F)nc4c(F)c(-c5cc(O)cc6cccc(Cl)c56)c(F)cc34)C1)N2 (single isomer, unassigned) [Ex. 216a] | 3090 | 6.65 |  | 
37 | C[C@]12CCC(CN(c3nc(OC[C@]4(CN[C@H]5C[C@@H](O)C5)CC4(F)F)nc4c(F)c(-c5cc(O)cc6cccc(Cl)c56)c(F)cc34)C1)N2 (single isomer, unassigned) [Ex. 216b] | 7120 | 804 |  | 
